Experimental data taken from publication PMC6066574, “Resistance to the Plant Defensin NaD1 Features Modifications to the Cell Wall and Osmo-Regulation Pathways of Yeast” (Frontiers in Microbiology, 2018).
In brackets after ≈: the same amount, converted by molar mass. Where two headings read alike, the source gives them in different places.

Columns and labels:
[1] = tested on: NaD1-resistant strains of S. cerevisiae compared to wild type BY4741; experiment: Stress spot assay on YPD agar; assay type: cell-based, Saccharomyces cerevisiae; settings: for concentration that inhibited NaD1-resistant strains but not the wild type: YPD agar spot assay, Figure 6; for concentration at which sensitivity of the NaD1-resistant strains was observed: YPD agar, fivefold dilution spots, overnight 30°C, Supplementary Figures 3 and 4; for growth of NaD1-resistant strains relative to wild-type: result in words
Experimental: YPD agar medium (25 mL) was amended to a final concentration of hydrogen peroxide (0.625 mM, 1.25 mM, 2.5 mM, 5 mM), CFW (1 μg/mL, 2.5 μg/mL, 5 μg/mL, 10 μg/mL), NaCl (100 mM, 200 mM, 300 mM), or SDS (12.5 μg/mL, 25 μg/mL, 50 μg/mL, 100 μg/mL) just before each plate was poured. Yeast cultures were grown overnight in 5 mL of YPD before dilution to an OD 600 nm of 0.1. A fivefold dilution series of each culture was spotted onto the plate (4 μL per spot) and incubated overnight at 30°C before being photographed.

[2] = tested on: no-treatment control lines of S. cerevisiae; experiment: Antifungal growth assay, no-treatment control lines (stated together); assay type: cell-based; settings: Saccharomyces cerevisiae, read-out: MIC against no treatment control
Experimental: (§1) S. cerevisiae BY4741 was grown overnight at 30°C with agitation in 5 mL of YPD. The overnight culture was then diluted to an OD 600 nm of 0.01 in 50% strength PDB medium (½ PDB) before addition of antifungal molecules. Cultures were initially grown with the antifungal molecules at 0.5x the minimum inhibitory concentration (MIC) or 1x MIC alongside a negative control lacking antifungals. Three independent lines for the test and controls were grown at the same time. The cultures were incubated overnight at 30°C with agitation. […] Sub-culturing was stopped once growth occurred at 32 times the original MIC.
(§2) Antifungal assays were performed as described in [Hayes et al. (2013)]. Briefly, cultures were grown overnight (30°C, 250 rpm) in 5 mL YPD and diluted to an OD600 of 0.01 in ½ PDB. Antifungal molecules were prepared at 10x the assay concentration, and 10 μL was mixed with 90 μL of diluted yeast culture before incubation for 24 h at 30°C. The final OD600 was measured using a SpectraMAX M5e plate reader (Molecular Devices).

[3] = tested on: S. cerevisiae BY4741 wild-type; experiment: Antifungal growth assay, wild-type strain; assay type: cell-based; settings: Saccharomyces cerevisiae
Experimental: as §2

[4] = tested on: S. cerevisiae NaD1-resistant strain C; experiment: Antifungal growth assay, NaD1-R C; assay type: cell-based; settings: Saccharomyces cerevisiae, Table 1, ½ PDB, 24 h at 30°C, OD600, read-out: Caspofungin MIC
Experimental: as §1
(§3) Cultures that were more tolerant to the antifungal molecule were streaked out for single colonies on non-selective YPD agar. Three colonies were picked from each line, and their resistance was re-tested. The colony with the highest resistance to the antifungal was retained for further experimentation. The MIC of pure strains isolated from each culture was broadly equivalent (Supplementary Figure 1).
(§4) Antifungal assays were performed as described in [Hayes et al. (2013)]. Briefly, cultures were grown overnight (30°C, 250 rpm) in 5 mL YPD and diluted to an OD600 of 0.01 in ½ PDB. […] The final OD600 was measured using a SpectraMAX M5e plate reader (Molecular Devices).

[5] = tested on: S. cerevisiae Caspofungin-R A; experiment: Antifungal growth assay, Caspofungin-R A; assay type: cell-based; settings: Saccharomyces cerevisiae, Table 1, ½ PDB, 24 h at 30°C, OD600
Experimental: as §1, §3, §4

[6] = tested on: S. cerevisiae NaD1-resistant strain A; experiment: Antifungal growth assay, NaD1-R A; assay type: cell-based; settings: Saccharomyces cerevisiae, Table 1, ½ PDB, 24 h at 30°C, OD600, read-out: Caspofungin MIC
Experimental: as §1, §3, §4

[7] = tested on: caspofungin-resistant isolates of S. cerevisiae; experiment: Antifungal growth assay, caspofungin-resistant isolates (stated together); assay type: cell-based, Saccharomyces cerevisiae
Experimental: as §1, §3, §4

[8] = tested on: S. cerevisiae Caspofungin-R B; experiment: Antifungal growth assay, Caspofungin-R B; assay type: cell-based; settings: Saccharomyces cerevisiae, Table 1, ½ PDB, 24 h at 30°C, OD600
Experimental: as §1, §3, §4

[9] = tested on: NaD1-resistant strains of S. cerevisiae; experiment: Antifungal growth assay, NaD1-resistant strains (stated together); assay type: cell-based, Saccharomyces cerevisiae; settings: Figure 2B; result in words
Experimental: as §1, §3, §4

[10] = tested on: S. cerevisiae NaD1-resistant strain B; experiment: Antifungal growth assay, NaD1-R B; assay type: cell-based; settings: Saccharomyces cerevisiae, Table 1, ½ PDB, 24 h at 30°C, OD600, read-out: Caspofungin MIC
Experimental: as §1, §3, §4

[11] = tested on: S. cerevisiae Caspofungin-R C; experiment: Antifungal growth assay, Caspofungin-R C; assay type: cell-based; settings: Saccharomyces cerevisiae, Table 1, ½ PDB, 24 h at 30°C, OD600
Experimental: as §1, §3, §4

S. cerevisiae BY4741 = experiment: Serial sub-culturing in the presence of antifungal to develop resistance; assay type: cell-based, Saccharomyces cerevisiae; settings: caspofungin-resistant lines
Experimental: as §1

O=S(=O)(O)c1cc(Nc2nc(Nc3ccccc3)nc(N(CCO)CCO)n2)ccc1/C=C/c1ccc(Nc2nc(Nc3ccccc3)nc(N(CCO)CCO)n2)cc1S(=O)(=O)O [CFW, calcofluor white]
concentration that inhibited NaD1-resistant strains but not the wild type [1]: 10 µg/mL | concentration at which sensitivity of the NaD1-resistant strains was observed [1]: 1 µg/mL

[Cl-].[Na+] [NaCl]
growth of NaD1-resistant strains relative to wild-type ([1]; 200 mM NaCl in YPD agar): grew better than wild-type

CCCCCCCCCCCCOS(=O)(=O)[O-].[Na+] [SDS]
concentration that inhibited NaD1-resistant strains but not the wild type [1]: 100 µg/mL | concentration at which sensitivity of the NaD1-resistant strains was observed [1]: 12.5 µg/mL

CC[C@H](C)C[C@H](C)CCCCCCCCC(=O)N[C@H]1C[C@@H](O)[C@@H](NCCN)NC(=O)[C@@H]2[C@@H](O)CCN2C(=O)[C@H]([C@H](O)CCN)NC(=O)[C@H]([C@H](O)[C@@H](O)c2ccc(O)cc2)NC(=O)[C@@H]2C[C@@H](O)CN2C(=O)[C@H]([C@@H](C)O)NC1=O [caspofungin]
MIC [2]: 0.02 µM (≈ 0.0219 µg/mL) | MIC ([3]; Table 1, Wild-type, ½ PDB, 24 h at 30°C, OD600, read-out: Caspofungin MIC): 0.02 µM (≈ 0.0219 µg/mL) | MIC ([3]; initial MIC at the start of sub-culturing, read-out: initial MIC): 0.01 µM (≈ 0.0109 µg/mL) | MIC [4]: 0.025 µM (≈ 0.0273 µg/mL) | MIC [5]: 0.5 µM (≈ 0.547 µg/mL) | MIC [6]: 0.025 µM (≈ 0.0273 µg/mL) | MIC ([7]; Saccharomyces cerevisiae, read-out: MIC against caspofungin-resistant isolates): 0.5 µM (≈ 0.547 µg/mL) | fold more resistant than no treatment control / wild type (MIC ratio) ([7]; caspofungin-resistant isolates versus no treatment control / wild type): 25 fold | MIC [8]: 0.5 µM (≈ 0.547 µg/mL) | sensitivity of NaD1-resistant strains compared with wild type [9]: as sensitive to caspofungin as the wild-type strain | MIC [10]: 0.025 µM (≈ 0.0273 µg/mL) | MIC [11]: 0.5 µM (≈ 0.547 µg/mL) | rounds of sub-culture to achieve growth at concentrations 32-fold higher than the initial MIC (S. cerevisiae BY4741): 15 rounds

OO [hydrogen peroxide]
growth of NaD1-resistant strains relative to wild-type ([1]; range of hydrogen peroxide concentrations in YPD agar): grew the same as the wild-type strain
